Assay results as given in patent publication US7223759B2, “Antibacterial 3,5-diaminopiperidine-substituted aromatic and heteroaromatic compounds” (Anadys Pharmaceuticals, Inc., priority 2003, dated 2007).

The compounds below were run on Escherichia coli (ATCC25922) or Staphylococcus aureus (ATCC25923) (assay: Antibacterial MIC, microdilution method in Mueller-Hinton medium). Conditions: Escherichia coli, 18 h, MIC in E. coli or S. aureus; two-fold serial dilutions 64 to 0.5 μg/ml in duplicate; 18 hours of incubation at 35° C.; read-out: Potency (MIC).
Format: cell-based
Method in brief: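 Read after 18 h incubation at 35° C, MIC is the lowest compound level that blocked growth. Compounds were tested in duplicate over 64–0.5 μg/ml two-fold dilutions using Mueller-Hinton microdilution per NCCLS standard.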
`Cl.O=C(Nc1ccc(Nc2nc(N3CCCCC3)nc(N3CCCCC3)n2)cc1Cl)c1ccc(F)c(F)c1O` [N-[3-chloro-4-(3,4-difluoro-2-hydroxy-benzoylamino)-pheny]-4,6-Bis-((3R,5S)-3,5-diamino-piperidin-1-yl)-[1,3,5]triazine-2-ammine] was tested, and the MIC was < 16 µg/mL. For `Cc1ccc(C(=O)Nc2ccc(Nc3nc(N4C[C@H](N)C[C@H](N)C4)nc(N4C[C@H](N)C[C@H](N)C4)n3)cc2O)c(O)c1` [N-[3-hydroxy-4-(2-hydroxy-4-methyl-benzoylamino)-phenyl]-4,6-Bis-((3R,5S)-3,5-diamino-piperidin-1-yl)-[1,3,5]triazine-2-amine], the MIC was < 16 µg/mL. With `COCCNC(=O)c1ccc(Nc2nc(N3C[C@H](N)C[C@H](N)C3)nc(N3C[C@H](N)C[C@H](N)C3)n2)cc1O` [N-[3-hydroxy-4-(2-methoxy-ethylcarbamoyl)-phenyl]-4,6-Bis-((3R,5S)-3,5-diamino-piperidin-1-yl)-[1,3,5]triazine-2-amine] the MIC was > 64 µg/mL. `COc1cc(NC(=O)c2ccc(Nc3nc(N4CCCCC4)nc(N4CCCCC4)n3)cc2O)cc(OC)c1OC.Cl` [N-[3-hydroxy-4-(3,4,5-trimethoxy-phenylcarbamoyl)-phenyl]-4,,6-Bis-((3R,5S)-33,5-diamino-piperidin-1-yl)-[1,3,5]triazine-2-amine] was tested, and the MIC was < 64 µg/mL.

Same assay, conditions: Escherichia coli, 18 h, read-out: Potency (MIC)
For `N[C@@H]1C[C@H](N)CN(c2nc(NCCNc3ccc([N+](=O)[O-])cn3)nc(N3C[C@H](N)C[C@H](N)C3)n2)C1` [N-[2-(5-nitro-pyridin-2-ylamino)-ethyl]-4,6-Bis-((3R,5S)-3,5-diamino-piperidin-1-yl)-[1,3,5]triazine-2-amine], the MIC was > 64 µg/mL. With `Cc1ccc(S(=O)(=O)Nc2ccccc2Nc2nc(N3C[C@H](N)C[C@H](N)C3)nc(N3C[C@H](N)C[C@H](N)C3)n2)cc1` [N-[2-(toluene-4-sulfonylamino)-phenyl]-4,6-Bis-((3R,5S)-3,5-diamino-piperidin-1-yl)-[1,3,5]triazine-2-amine] the MIC was > 64 µg/mL. In the case of `N#CCCNS(=O)(=O)c1ccc(Cl)c(Nc2nc(N3C[C@H](N)C[C@H](N)C3)nc(N3C[C@H](N)C[C@H](N)C3)n2)c1` [N-[2-chloro-5-(2-cyano-ethylsulfamoyl)-phenyl]-4,6-Bis-((3R,5S)-3,5-diamino-piperidin-1-yl)-[1,3,5]triazine-2-amine], the MIC is reported as > 64 µg/mL. `N[C@@H]1C[C@H](N)CN(c2nc(Nc3ccc(NC(=O)c4cccc([N+](=O)[O-])c4O)cc3O)nc(N3C[C@H](N)C[C@H](N)C3)n2)C1` [N-[2-hydroxy-4-(2-hydroxy-3-nitro-benzoylamino)-phenyl]-4,6-Bis-((3R,5S)-3,5-diamino-piperidin-1-yl)-[1,3,5]triazine-2-amine] was tested, and the MIC was < 64 µg/mL. With `N[C@@H]1C[C@H](N)CN(c2nc(Nc3cc(Cl)c(NC(=O)c4ccc(Cl)cc4O)c(Cl)c3)nc(N3C[C@H](N)C[C@H](N)C3)n2)C1` [N-[3,5-dichloro-4-(4-chloro-2-hydroxy-benzoylamino)-phenyl]-4,6-Bis-((3R,5S)-3,5-diamino-piperidin-1-yl)-[1,3,5]triazine-2-amine] the MIC was < 16 µg/mL. In the case of `N[C@@H]1C[C@H](N)CN(c2nc(Nc3cccc(NC(=O)c4cccc(O)c4O)c3)nc(N3C[C@H](N)C[C@H](N)C3)n2)C1` [N-[3-(2,3-dihydroxy-benzoylamino)-phenyl]-4,6-Bis-((3R,5S)-3,5-diamino-piperidin-1-yl)-[1,3,5]triazine-2-amine], the MIC is reported as < 16 µg/mL. For `N[C@@H]1C[C@H](N)CN(c2nc(Nc3cccc(NC(=O)c4ccc(O)cc4O)c3)nc(N3C[C@H](N)C[C@H](N)C3)n2)C1` [N-[3-(2,4-dihydroxy-benzoylamino)-phenyl]-4,6-Bis-((3R,5S)-3,5-diamino-piperidin-1-yl)-[1,3,5]triazine-2-amine], the MIC was < 16 µg/mL. With `CCn1c(-c2cccc(Nc3nc(N4C[C@H](N)C[C@H](N)C4)nc(N4C[C@H](N)C[C@H](N)C4)n3)c2)cc(=O)n1-c1ccccc1` [N-[3-(2-ethyl-5-oxo-1-phenyl-2,5-dihydro-1H-pyrazol-3-yl)-phenyl]-4,6-Bis-((3R,5S)-3,5-diamino-piperidin-1-yl)-[1,3,5]triazine-2-amine] the MIC was > 64 µg/mL. With `Cc1cccc(C(=O)Nc2cccc(Nc3nc(N4C[C@H](N)C[C@H](N)C4)nc(N4C[C@H](N)C[C@H](N)C4)n3)c2)c1O` [N-[3-(2-hydroxy-3-methyl-benzoylamino)-phenyl]-4,6-Bis-((3R,5S)-3,5-diamino-piperidin-1-yl)-[1,3,5]triazine-2-amine] the MIC was < 16 µg/mL. In the case of `N[C@@H]1C[C@H](N)CN(c2nc(Nc3cccc(NC(=O)c4cccc([N+](=O)[O-])c4O)c3)nc(N3C[C@H](N)C[C@H](N)C3)n2)C1` [N-[3-(2-hydroxy-3-nitro-benzoylamino)-phenyl]-4,6-Bis-((3R,5S)-3,5-diamino-piperidin-1-yl)-[1,3,5]triazine-2-amine], the MIC is reported as < 16 µg/mL. With `Cc1ccc(C(=O)Nc2cccc(Nc3nc(N4C[C@H](N)C[C@H](N)C4)nc(N4C[C@H](N)C[C@H](N)C4)n3)c2)c(O)c1` [N-[3-(2-hydroxy-4-methyl-benzoylamino)-phenyl]-4,6-Bis-((3R,5S)-3,5-diamino-piperidin-1-yl)-[1,3,5]triazine-2-amine] the MIC was < 64 µg/mL. In the case of `N[C@@H]1C[C@H](N)CN(c2nc(Nc3cccc(NC(=O)c4ccc(Cl)cc4O)c3)nc(N3C[C@H](N)C[C@H](N)C3)n2)C1` [N-[3-(4-chloro-2-hydroxy-benzoylamino)-phenyl]-4,6-Bis-((3R,5S)-3,5-diamino-piperidin-1-yl)-[1,3,5]triazine-2-amine], the MIC is reported as < 16 µg/mL. With `N[C@@H]1C[C@H](N)CN(c2nc(Nc3ccc(NC(=O)c4ccc(Cl)cc4O)c(Br)c3)nc(N3C[C@H](N)C[C@H](N)C3)n2)C1` [N-[3-bromo-4-(4-chloro-2-hydroxy-benzoylamino)-phenyl]-4,6-Bis-((3R,5S)-3,5-diamino-piperidin-1-yl)-[1,3,5]triazine-2-amine] the MIC was < 16 µg/mL. In the case of `COc1cccc(C(=O)Nc2ccc(Nc3nc(N4C[C@H](N)C[C@H](N)C4)nc(N4C[C@H](N)C[C@H](N)C4)n3)cc2Cl)c1O` [N-[3-chloro-4-(2-hydroxy-3-methoxy-benzoylamino)-phenyl]-4,6-Bis-((3R,5S)-3,5-diamino-piperidin-1-yl)-[1,3,5]triazine-2-amine], the MIC is reported as < 16 µg/mL. In the case of `Cc1cc(Nc2nc(N3C[C@H](N)C[C@H](N)C3)nc(N3C[C@H](N)C[C@H](N)C3)n2)cc(Cl)c1NC(=O)c1ccc(Cl)cc1O` [N-[3-chloro-4-(4-chloro-2-hydroxy-benzoylamino)-5-methyl-phenyl]-4,6-Bis-((3R,5S)-3,5-diamino-piperidin-1-yl)-[1,3,5]triazine-2-amine], the MIC is reported as < 16 µg/mL. `N[C@@H]1C[C@H](N)CN(c2nc(Nc3ccc(NC(=O)c4ccc(Cl)cc4O)c(Cl)c3)nc(N3C[C@H](N)C[C@H](N)C3)n2)C1` [N-[3-chloro-4-(4-chloro-2-hydroxy-benzoylamino)-phenyl]-4,6-Bis-((3R,5S)-3,5-diamino-piperidin-1-yl)-[1,3,5]triazine-2-amine] was tested, and the MIC was < 16 µg/mL. In the case of `N[C@@H]1C[C@H](N)CN(c2nc(Nc3ccc(NC(=O)c4ccc(F)cc4O)c(Cl)c3)nc(N3C[C@H](N)C[C@H](N)C3)n2)C1` [N-[3-chloro-4-(4-fluoro-2-hydroxy-benzoylamino)-phenyl]-4,6-Bis-((3R,5S)-3,5-diamino-piperidin-1-yl)-[1,3,5]triazine-2-amine], the MIC is reported as > 64 µg/mL. For `COc1ccc(C(=O)Nc2ccc(Nc3nc(N4C[C@H](N)C[C@H](N)C4)nc(N4C[C@H](N)C[C@H](N)C4)n3)cc2O)c(O)c1OC` [N-[3-hydroxy-4-(2-hydroxy-3,4-dimethoxy-benzoylamino)-phenyl]-4,6-Bis-((3R,5S)-3,5-diamino-piperidin-1-yl)-[1,3,5]triazine-2-amine], the MIC was < 64 µg/mL. `CC(C)c1cc(C(=O)Nc2ccc(Nc3nc(N4C[C@H](N)C[C@H](N)C4)nc(N4C[C@H](N)C[C@H](N)C4)n3)cc2O)c(O)c(C(C)C)c1` [N-[3-hydroxy-4-(2-hydroxy-3,5-diisopropyl-benzoylamino)-phenyl]-4,6-Bis-((3R,5S)-3,5-diamino-piperidin-1-yl)-[1,3,5]triazine-2-amine] was tested, and the MIC was < 16 µg/mL. `COc1cccc(C(=O)Nc2ccc(Nc3nc(N4C[C@H](N)C[C@H](N)C4)nc(N4C[C@H](N)C[C@H](N)C4)n3)cc2O)c1O` [N-[3-hydroxy-4-(2-hydroxy-3-methoxy-benzoylamino)-phenyl]-4,6-Bis-((3R,5S)-3,5-diamino-piperidin-1-yl)-[1,3,5]triazine-2-amine] was tested, and the MIC was < 16 µg/mL. In the case of `Cc1cccc(C(=O)Nc2ccc(Nc3nc(N4C[C@H](N)C[C@H](N)C4)nc(N4C[C@H](N)C[C@H](N)C4)n3)cc2O)c1O` [N-[3-hydroxy-4-(2-hydroxy-3-methyl-benzoylamino)-phenyl]-4,6-Bis-((3R,5S)-3,5-diamino-piperidin-1-yl)-[1,3,5]triazine-2-amine], the MIC is reported as < 16 µg/mL. In the case of `COc1ccc(O)c(C(=O)Nc2ccc(Nc3nc(N4C[C@H](N)C[C@H](N)C4)nc(N4C[C@H](N)C[C@H](N)C4)n3)cc2O)c1` [N-[3-hydroxy-4-(2-hydroxy-5-methoxy-benzoylamino)-phenyl]-4,6-Bis-((3R,5S)-3,5-diamino-piperidin-1-yl)-[1,3,5]triazine-2-amine], the MIC is reported as < 16 µg/mL. With `N[C@@H]1C[C@H](N)CN(c2nc(Nc3ccc(NC(=O)c4cc(OC(F)(F)F)ccc4O)c(O)c3)nc(N3C[C@H](N)C[C@H](N)C3)n2)C1` [N-[3-hydroxy-4-(2-hydroxy-5-trifluoromethoxy-benzoylamino)-phenyl]-4,6-Bis-((3R,5S)-3,5-diamino-piperidin-1-yl)-[1,3,5]triazine-2-amine] the MIC was < 16 µg/mL. `COc1ccccc1C(=O)Nc1ccc(Nc2nc(N3C[C@H](N)C[C@H](N)C3)nc(N3C[C@H](N)C[C@H](N)C3)n2)cc1O` [N-[3-hydroxy-4-(2-methoxy-benzoylamino)-phenyl]-4,6-Bis-((3R,5S)-3,5-diamino-piperidin-1-yl)-[1,3,5]triazine-2-amine] was tested, and the MIC was < 16 µg/mL.
